This note sets out measurements from US20230192617A1, “AZABICYCLIC(THIO)AMIDES AS FUNGICIDAL COMPOUNDS” (Bayer CropScience Aktiengesellschaft, priority 2020, published 2023).

Data set [1] concerns Colletotrichum lindemuthianum. As to the kind of experiment: B-8. Colletotrichum lindemuthianum in vitro cell test. The class given is cell-based. To be noted: 144 h, 20 ppm of active ingredient, 6 days incubation, liquid culture, absorbance, read-out: efficacy (inhibition of fungal growth). How it is done:
(§1) B-8. Colletotrichum lindemuthianum In Vitro Cell Test [table] Fungicides were solubilized in DMSO and the solution used to prepare the required range of concentrations. The final concentration of DMSO used in the assay was ≤1%. A spore suspension of C. lindemuthianum was prepared and diluted to the desired spore density. Fungicides were evaluated for their ability to inhibit spores germination and mycelium growth in liquid culture assay. The compounds were added in the desired concentration to the culture medium with spores. After 6 days incubation, fungi-toxicity of compounds was determined by spectrometric measurement of mycelium growth. Inhibition of fungal growth was determined by comparing the absorbance values in wells containing the fungicides with the absorbance in control wells without fungicides.

The test system of data set [2] is Alternaria brassicae. As to the kind of experiment: In vivo preventive test on Alternaria brassicae (leaf spot on radish or cabbage). The note with it: 500 ppm of active ingredient, preventive spray on radish or cabbage, evaluated 3 to 4 days after inoculation, read-out: efficacy. How it is done:
B-1. In Vivo Preventive Test on Alternaria brassicae (Leaf Spot on Radish or Cabbage) [table] The active ingredients were made soluble and homogenized in a mixture of Dimethyl sulfoxide/Acetone/Tween® 80 and then diluted in water to the desired concentration. The young plants of radish or cabbage were treated by spraying the active ingredient prepared as described above. Control plants were treated only with an aqueous solution of Acetone/Dimethyl sulfoxide/Tween® 80. After 24 hours, the plants were contaminated by spraying the leaves with an aqueous suspension of Alternaria brassicae spores. The contaminated radish or cabbage plants were incubated for 3 to 4 days at 20° C. and at 100% relative humidity.

The subject of data set [3] is Alternaria alternata. As to the kind of experiment: Alternaria alternata in vitro cell test. The note with it: 120 h, 20 ppm of active ingredient, liquid culture, 5 days incubation, spectrometric measurement of mycelium growth, read-out: efficacy (inhibition of fungal growth). The class given is cell-based. How it is done:
as §1, with “B-6. Alternaria alternata In” for “B-8. Colletotrichum lindemuthianum In”, “of A. alternata” for “of C. lindemuthianum”, “inhibit spore” for “inhibit spores”, “After 5” for “After 6”

Data set [4] has as its system Botrytis cinerea. As to the kind of experiment: In vivo preventive test on Botrytis cinerea (grey mould). To be noted: 500 ppm of active ingredient, preventive spray on gherkin or cabbage, evaluated 4 to 5 days after inoculation, read-out: efficacy. On the procedure: B-2. In Vivo Preventive Test on Botrytis cinerea (Grey Mould) [table] The active ingredients were made soluble and homogenized in a mixture of Dimethyl sulfoxide/Acetone/Tween® 80 and then diluted in water to the desired concentration. The young plants of gherkin or cabbage were treated by spraying the active ingredient prepared as described above. Control plants were treated only with an aqueous solution of Acetone/Dimethyl sulfoxide/Tween® 80. After 24 hours, the plants were contaminated by spraying the leaves with an aqueous suspension of Botrytis cinerea spores. The contaminated gherkin plants were incubated for 4 to 5 days at 17° C. and at 90% relative humidity. The contaminated cabbage plants were incubated for 4 to 5 days at 20° C. and at 100% relative humidity.

The nature of data set [5]: Measurement of Log P values by HPLC on reversed phase columns (EEC directive 79/831 Annex V.A8). Format: physicochemical. The note with it: reversed phase HPLC column. On the procedure:
A-1.1. Measurement of Log P Values
Measurement of Log P values as provided herein was performed according to EEC directive 79/831 Annex V.A8 by HPLC (High Performance Liquid Chromatography) on reversed phase columns with the following methods:
^[a] Log P value is determined by measurement of LC-UV, in an acidic range, with 0.1% formic acid in water and acetonitrile as eluent (linear gradient from 10% acetonitrile to 95% acetonitrile).
^[b] Log P value is determined by measurement of LC-UV, in a neutral range, with 0.001 molar ammonium acetate solution in water and acetonitrile as eluent (linear gradient from 10% acetonitrile to 95% acetonitrile).
^[c] Log P value is determined by measurement of LC-UV, in an acidic range, with 0.1% phosphoric acid and acetonitrile as eluent (linear gradient from 10% acetonitrile to 95% acetonitrile).
If more than one Log P value is available within the same method, all the values are given and separated by “+”. […]

Setting [6] is: method [a]: LC-UV, acidic range, 0.1% formic acid in water and acetonitrile as eluent.

The structures appear in SMILES notation.

Turning to `C[C@H](NC(=O)c1c(Oc2cccc(Cl)c2)nnc2ccccc12)c1cccc(C(F)(F)F)c1` (racemic) [I-016], the inhibition at 20 ppm in data set [1] and in data set [3] was 80 to 89% in each case. The pest or weed control at 500 ppm in data set [2] and in data set [4] was 90 to 100% each time. This compound displayed a chromatographic logP in data set [5] (setting [6]) of 3.9.

Take `C[C@H](NC(=O)c1c(Oc2cccc(C(F)(F)F)c2)nnc2ccccc12)c1cccc(C(F)(F)F)c1` (racemic) [I-022]: the inhibition at 20 ppm is 70 to 79% in data set [1] and 80 to 89% in data set [3]. Moreover, the pest or weed control at 500 ppm in data set [4] fell in the range of 90 to 100%. This compound displayed a chromatographic logP in data set [5] (setting [6]) of 4.03.

Consider `N#Cc1cccc(Oc2nnc3ccccc3c2C(=O)NC[C@H](F)c2ccc(Br)cc2Cl)c1` (racemic) [I-031], for which the inhibition at 20 ppm in data set [1] and in data set [3] was 90 to 100% each time. The pest or weed control at 500 ppm in data set [2] and in data set [4] was 90 to 100% throughout. The chromatographic logP in data set [5] (setting [6]) stood at 3.65.

For the compound `O=C(N[C@H]1CCCc2cc(Cl)sc21)c1c(Oc2cccc(C(F)(F)F)c2)cnc2ccccc12` (racemic) [I-040], the inhibition at 20 ppm in data set [1] and in data set [3] was 90 to 100% throughout. Moreover, in data set [4], the pest or weed control at 500 ppm fell in the range of 80 to 89%. In data set [5] (setting [6]), this compound yielded a chromatographic logP of 4.54.

For `O=C(NC[C@@H](F)c1ccc(Cl)c(Cl)c1)c1c(Oc2cccc(Cl)c2)nnc2ccccc12` (racemic) [I-051], the inhibition at 20 ppm in data set [1] and in data set [3] was 90 to 100% in each case. Besides, in data set [2], the pest or weed control at 500 ppm was 70 to 79%. In addition, the chromatographic logP in data set [5] (setting [6]) was found to be 4.23.

For `Cc1ccc2c(C(=O)N[C@H]3CCCc4cc(Br)ccc43)c(Oc3cccc(C(F)(F)F)c3)nnc2c1` (racemic) [I-181], in data set [3], the inhibition at 20 ppm was in the range of 80 to 89%. This compound came in with a chromatographic logP in data set [5] (setting [6]) of 4.88.

Take `CCOC(=O)c1c(Oc2cccc(C(F)(F)F)c2)nnc2cnccc12` [1-54]: the chromatographic logP in data set [5] (setting [6]) was determined as 3.51.

The compound `COC(=O)c1c(Oc2cccc(C(F)(F)F)c2)nnc2ccsc12` [1-55] returned a chromatographic logP in data set [5] (setting [6]) of 3.34. The chromatographic logP values of the last two compounds are within 0.2 log units of each other.

Regarding `O=C(O)c1c(Oc2cccc(Cl)c2F)nnc2c1CCC2` [1-56], the chromatographic logP in data set [5] (setting [6]) was determined as 1.53.

In the case of `O=C(O)c1c(Oc2cccc(C(F)(F)F)c2)nnc2ccsc12` [1-57], the chromatographic logP in data set [5] (setting [6]) is 2.39.

As for `CCOC(=O)c1c(Oc2cccc(C(F)(F)F)c2)nnc2cc(F)ccc12` [1-58], the chromatographic logP in data set [5] (setting [6]) is 4.16.

The compound `Cc1ccc(C(F)(F)CNC(=O)c2c(Br)cnc3nccnc23)c(C)c1` [3-01] had a chromatographic logP in data set [5] (setting [6]) of 2.56.

As to `Cc1ccc(C(F)(F)CNC(=O)c2c(Cl)nnc3ccccc23)c(C)c1` [3-02], the chromatographic logP in data set [5] (setting [6]) came to 3.23.

For the compound `O=C(N/C=C\c1ccccc1)c1c(Oc2cccc(C(F)(F)F)c2)cnc2ccccc12` [I-001], the inhibition at 20 ppm in data set [3] lay in the range of 70 to 79%. The pest or weed control at 500 ppm in data set [4] was 90 to 100%. In addition, in data set [5] (setting [6]), the chromatographic logP worked out at 4.17.

Consider `Cc1ccc(CCNC(=O)c2c(Oc3cccc(C(F)(F)F)c3)nnc3c(C)cccc23)c(C)c1` [I-005], for which the inhibition at 20 ppm lay in the range of 80 to 89% in data set [1] and 90 to 100% in data set [3]. Besides, the pest or weed control at 500 ppm in data set [4] is 90 to 100%. Further, in data set [5] (setting [6]), the chromatographic logP was 4.69.

For the compound `Cc1ccc(CCNC(=O)c2c(Oc3cccc(C(F)(F)F)c3)nnc3cc(F)ccc23)c(C)c1` [I-007], the inhibition at 20 ppm in data set [1] and in data set [3] was 90 to 100% in each case. Also, in data set [4], the pest or weed control at 500 ppm is 90 to 100%. For the same compound, in data set [5] (setting [6]), the chromatographic logP came out at 4.4.

On to `COc1ccc2c(C(=O)NCCc3ccc(C)cc3C)c(Oc3cccc(C(F)(F)F)c3)nnc2c1` [I-009], for which, in data set [3], the inhibition at 20 ppm was in the range of 90 to 100%. The chromatographic logP in data set [5] (setting [6]) was determined as 4.3.

On to `Cc1ccc(CCNC(=O)c2c(Oc3cccc(C(F)(F)F)c3)nnc3cnccc23)c(C)c1` [I-011], for which the pest or weed control at 500 ppm in data set [2] lay within 80 to 89%; in data set [4], 90 to 100%. Also, in data set [3], the inhibition at 20 ppm fell in the range of 90 to 100%. Moreover, the chromatographic logP in data set [5] (setting [6]) was 3.88.

Take `O=C(NCC(F)(F)c1ccc(Br)cc1Cl)c1c(Oc2cccc(Cl)c2)nnc2ccccc12` [I-013]: the inhibition at 20 ppm in data set [1] and in data set [3] was 90 to 100% each time. Besides, the pest or weed control at 500 ppm in data set [2] and in data set [4] was 90 to 100% throughout. In data set [5] (setting [6]), this compound showed a chromatographic logP of 4.46.

With `O=C(NCC(F)(F)c1ccc(Cl)cc1)c1c(Oc2ccc(Cl)cc2)nnc2ccccc12` [I-018], the inhibition at 20 ppm in data set [3] is 80 to 89%. In addition, the pest or weed control at 500 ppm in data set [4] was in the range of 90 to 100%. The chromatographic logP in data set [5] (setting [6]) turned out to be 3.96.

As to `O=C(NCC(F)(F)c1ccc(Br)cc1Cl)c1c(Oc2ccc(Cl)cc2)nnc2ccccc12` [I-019], the pest or weed control at 500 ppm in data set [2] was 70 to 79%; in data set [4] it was 90 to 100%. Further, the inhibition at 20 ppm in data set [3] was in the range of 80 to 89%. Besides, the chromatographic logP in data set [5] (setting [6]) came out at 4.46.

Turning to `Cc1ccc(C(F)(F)CNC(=O)c2c(Oc3cccc(C#N)c3)nnc3ccccc23)c(C)c1` [I-030], the inhibition at 20 ppm in data set [1] and in data set [3] was 90 to 100% each time. In addition, the pest or weed control at 500 ppm in data set [4] was in the range of 90 to 100%. For the same compound, the chromatographic logP in data set [5] (setting [6]) stood at 3.58.

Take `N#Cc1cccc(Oc2nnc3ccccc3c2C(=O)NCC(F)(F)c2ccc(Br)cc2Cl)c1` [I-032]: the inhibition at 20 ppm in data set [1] and in data set [3] was 90 to 100% each time. Besides, the pest or weed control at 500 ppm in data set [4] is 90 to 100%. In data set [5] (setting [6]), this compound showed a chromatographic logP of 3.77.

For the compound `O=C(NCC(F)(F)c1ccc(Cl)cn1)c1c(Oc2cccc(C(F)(F)F)c2)cnc2ccccc12` [I-038], the inhibition at 20 ppm in data set [1] was in the range of 70 to 79%. In data set [5] (setting [6]), this compound displayed a chromatographic logP of 3.74.

With `Cc1ccc(C(F)(F)CNC(=S)c2c(Oc3cccc(Cl)c3)nnc3ccccc23)c(C)c1` [I-158, 3-(3-chlorophenoxy)-N-[2-(2,4-dimethylphenyl)-2,2-difluoro-ethyl]cinnoline-4-carbothioamide], the inhibition at 20 ppm in data set [1] and in data set [3] was 90 to 100% throughout. The pest or weed control at 500 ppm in data set [2] was in the range of 90 to 100%. Besides, the chromatographic logP in data set [5] (setting [6]) was 5.01.

Regarding `N#Cc1cccc(Oc2nnc3ccccc3c2C(=O)NCC(F)(F)c2ccc(Cl)cc2)c1` [I-160], the inhibition at 20 ppm in data set [1] and in data set [3] was 90 to 100% each time. For the same compound, the pest or weed control at 500 ppm in data set [2] lay in the range of 80 to 89%. Further, the chromatographic logP in data set [5] (setting [6]) is 3.33.

In data set [5] (setting [6]), `CON(CCc1ccc(Cl)cc1Cl)C(=O)c1c(Oc2cccc(C(F)(F)F)c2)nnc2ccccc12` [I-190] came in with a chromatographic logP of 5.03.

As to `Cc1ccc(C(F)(F)CNC(=O)c2c(Oc3ccc(Cl)cc3)nnc3ccccc23)c(C)c1` [I-200], the chromatographic logP in data set [5] (setting [6]) was found to be 4.23.

For the compound `O=C(N/C=C/c1ccccc1)c1c(Oc2cccc(C(F)(F)F)c2)cnc2ccccc12` [I-217], the chromatographic logP in data set [5] (setting [6]) amounted to 3.92.

The compound `CCON(Cc1ccccc1)C(=O)c1c(Oc2cccc(C(F)(F)F)c2)nnc2ccccc12` [I-247] showed a chromatographic logP in data set [5] (setting [6]) of 4.24.

Regarding `N#Cc1cccc(Oc2nnc3ccccc3c2C(=O)NCC(F)(F)c2ccc(Cl)cn2)c1` [I-248], the inhibition at 20 ppm in data set [1] lay in the range of 70 to 79%. The chromatographic logP turned out to be 2.84 in data set [5] (setting [6]); 2.94 in data set [5] (method [b]: LC-UV, neutral range, 0.001 molar ammonium acetate solution in water and acetonitrile as eluent).

For orientation: inhibition means the drop in the measured response relative to a control, in per cent. The chromatographic logP is lipophilicity estimated from chromatographic retention. Read a high chromatographic logP as higher lipophilicity.
